# Laboratory results taken from patent US20090042783A1, “APO E ANALOGS AND METHODS FOR THEIR USE” (priority 2004, published 2009).
# Where two headings read alike, the source gives them in different places. No end group written: not given here.
# B1: rIL11: rIL11 given to irradiated mice (Van der Meeren et al. 2002) (protein, UniProt P20809 22-199, looked up)
# Interleukin-11: PGPPPGPPRVSPDPRAELDSTVLLTRSLLADTRQLAAQLRDKFPADGDHNLDSLPTLAMSAGALGALQLPGVLTRLRADLLSYLRHVQWLRRAGGSSLKTLEPELGTLQARLDRLLRRLQLLMSRLALPQPPPDPPAPPLAPPSSAWGGIRAAHAILGGLHLTLDWAVRGLLLLKTRL
# Columns and labels:
# RAW 264.7 macrophages [1] = test: NO production and iNOS mRNA in C. rodentium-stimulated macrophages; type: cell-based, mouse
# Source text: RAW 264.7 cells were stimulated with French-pressed lysates of C. rodentium at a multiplicity of infection of 100. […] B, RT-PCR for iNOS.
# We used bacterial lysates to more closely mimic the bacterial products to which lamina propria macrophages are likely to be exposed.
# [2] = system: BV2 murine microglial cells
# Protocol: For Applicants preliminary work, the two most common PTDs, TAT and penetratin, were used.
# Cell Culture: BV-2, a well-characterized murine microglial cell line (Bochinni, 1992), is cultured in high glucose content DMEM supplemented with 1% penicillin/streptomycin, 10% fetal calf serum, 1% nonessential amino acids, and 1% sodium pyruvate. Cells are grown to confluency; trypsinized; spun down; resuspended in serum-free OptiMEM containing 1% N2 supplement, 1% penicillin/streptomycin, 1% nonessential amino acids, and 1% sodium pyruvate; and plated at a concentration of 20,000 cells/well to remove any nonadherent cells and serum.
# Supernatant is collected 24 and/or 48 h after LPS stimulation and assayed for nitrite.
# Quantification of Nitric Oxide (NO): Accumulation of nitrite (stable end product of NO production) in the medium is measured by colometric Griess reagent system (Promega); the absorbance is determined at 540 nm.
# Cell Viability Assay: Cell viability is measured using a nonradioactive cell viability assay (cell titer 96 AQ, Promega). The assay measures the bioreduction of MTS (3-(4,5-dimethylthiazole-2-)-5-(3-carboxymethoxyphenyl)-2-(4-sulfophenyl)-2H-tetrazolium by viable cells into formazan. The absorbance of the calorimetric assay is measured at λ 490 nm. Viability is assessed and used to normalize the nitrite data.
# RAW 264.7 macrophages [3] = system: RAW 264.7 macrophages
# peritoneal macrophages = test: Peritoneal macrophage production of NO, TNFα and IL-6 induced by MOG or LPS/IFN-γ; type: cell-based, mouse
# Protocol: For this purpose, three mice with clinical scores of 0 and three with clinical scores of 4 at 30 dpi (day post-immunization) were used for preparation of peritoneal macrophage cultures. Macrophages were collected after peritoneal lavage with 3 ml heparin (10 U/ml)-containing PBS and then seeded to 96-well microplates at a density of 1×10^5 cells/well in Dulbecco's MEM containing 10% fetal bovine serum, 2 mM L-glutamine serum, 1% HEPES and 100 U/ml penicillin and 100 μg/ml streptomycin, 37° C. in a humidified incubator with 5% CO2. 24 h later, the serum-containing medium was removed and cells were washed once with serum-free medium. To examine the differentiated response of macrophage to immune stimulators, macrophages obtained from mice with clinical scores of 0 or 4 were exposed to serial concentrations of IFN-γ/LPS or MOG35-55 peptide. […] Media were collected at 45 h or 72 h, and analyzed by ELISA for […] and IL-6 or for nitric oxide (NO) as detailed below.
# As the stable end product of nitric oxide release, nitrite levels in conditioned media were determined by injecting 50 μl media sample into a Sievers 280 NOA analyzer (Boulder, Colo., USA). Total protein (μg/well) was measured using the BCA method (Pierce, Rockford, Ill., USA) according to manufacturer's instructions with BSA as standard. BCA values were measured using a Molecular Devices Thermomax Microplate Reader (Menlo Park, Calif., USA) at OD562. Nitric oxide levels ere expressed as μM NO2—/mg protein.
# For cytokine assays, supernatants were collected 45 h after […]/LPS or MOG treatments and quantitative ELISAs using selected pairs of monoclonal antibodies (as recommended by the manufacturer Biosource) were performed to quantify the cytokines, TNF-α and IL-6. For TNF-α ELISA, 96-well ELISA plates were pre-coated with rabbit anti-mouse polyclonal to TNF-α as capture antibodies for 18 h at 2-8° C. and then blocked for 2 h at room temperature. The wells were incubated with samples or mouse TNF-α standards. Following incubation for 2 h at room temperature, the wells were washed, after which hamster anti-mouse TNF-α biotinylated secondary antibody and horseradish peroxidase conjugate were added. Tetramethylbenzidine (TMB) solution was then added, and peroxidase-catalyzed color change was stopped by acidification with 2 NH2SO4. The plates were scanned at wavelength 450 nm and the absorbance were measured. The results are expressed as the mean concentration (pg/ml) ±SEM.
# For IL-6 ELISA, rat anti-mouse monoclonal to IL-6 was used as capture antibody, and biotinylated rat anti-mouse monoclonal to IL-6 as detection antibody. The rest of procedure is identical to that of TNF-α ELISA.
# BV2 microglial cells = system: BV2 microglial cells
# Protocol: For suppression of inflammation profiling, each peptide analog was tested at a final concentration of 0.1, […], 1, 3, 5, 10 and 25 μM in an LPS induced BV2 microglial cell release of NO and/or TNFα. […] The modification was a biotin label on the apoE peptide (biotin-[…]-amide) which allows detection with ^125I-streptavidin (ISA, Amersham).
# In overview, BV-2 cells are plated in 96 well plates in complete media and then the media is replaced the next day with serum free media or reduced serum (1%) media. […] Each concentration of peptide (standard initial concentrations are 0.1, 0.5, 1, 3, 10 and 25 μM) is added to at least 6 wells of cells (e.g. 6 wells get 0.1 μM peptide, 6 wells get 0.5 μM peptide, etc.) and data are averaged from all 6 wells. […] (2001). Cell viability is also measured with an MTT assay (Laskowitz et al. 2001).
# [4] = system: mice with traumatic brain injury; test: Closed head injury model of traumatic brain injury (rotorod, Morris Water Maze)
# Protocol: C57Bl/6J male mice (The Jackson Laboratory, ME), 12-16 weeks of age and weighing 24-32 g, are used for all experiments. Anesthesia is first induced with isoflurane in 30% O2/balance N2. The trachea is intubated and the lungs mechanically ventilated with 1.6% isoflurane in 30% O2/balance N2. Temperature is monitored with a rectal probe and maintained at 36.5° C. with a heat lamp. The right internal jugular vein is cannulated with silicone catheter. […] Intubated animals are then placed prone on a molded acrylic cast (FIG. 6A). […] The scalp is incised and the skull exposed. A concave 3 mm metallic disc is secured to the skull surface (with the concave surface in juxtaposition to the skull) by an adhesive. […] The disc is placed directly midline just caudal to bregma (FIG. 6B). […] The mice are positioned in a stereotactic frame. Although the stereotactactic frame helps to stabilize the animal and exactly calibrate the vertical displacement on impact (3 mm), ear bars are not used due to a much higher rate of skull fracture (or brainstem injury if the head rotates around the axis of the ear bars during impact). The piston is discharged at 6.8±0.2 m/s so as to impact the skull in the acrylic mold to move a maximum of approximately 3 mm (FIG. 6C). Inspired isoflurane is decreased to 0.7% immediately after impact. The scalp was infiltrated with lidocaine and closed with suture. Ophthalmic ointment was applied to the eyes for protection. The incidence of skull fracture is low (approximately 10%), as the metal disk helps to diffuse the impact, and the absence of ear bar fixation allows for displacement of the entire head. Mice were excluded if a depressed skull fracture was observed (incidence of approximately 10%). The animals are allowed to recover spontaneous ventilation then extubated. […] In these mice, arterial blood pressure, blood gas and glucose measurement at baseline, immediately after injury, and 15 minutes after injury are monitored during the recovery period.
# Briefly, baseline performance on rotorod is established before the mice are intubated, the skin over the scalp reflected and a controlled cortical impact from a pneumatic impactor given on the midline. The skin is closed with surgical clips and the animals are constantly monitored until awake from anesthesia and then hourly for the next 4 hours. […] Performance on rotorod is tested at 24 hours post impaction and then every day for 5 days and data is presented as described. Groups of 12 mice are used for each compound at 0.5×MTD. […] Novel peptides and non-peptide analogs are also given by tail vein injection.
# Daily Rotarod (RR) testing was used to assess short term motor and cerebellar deficit following head injury (Hamm et al., 1994). Mice were held by their tails and placed on the RR facing the wall by using gentle swinging motion while running in a constant speed mode.
# [5] = system: mice receiving total body irradiation; settings: cited from earlier work
# in vivo = settings: male, C57B1/6, mouse, 0.4 mg/kg
# [6] = system: C57BL/6J mice with MOG-induced EAE; test: MOG-induced experimental autoimmune encephalomyelitis (EAE); settings: preliminary data
# Protocol: EAE was induced in mice following the method of Feinstein et al. (Feinstein, Galea, et al. 2002) 1) two s.c. injections, one on each flank of the hind legs with 300 μg MOG35-55 peptide in 0.1 ml PBS emulsified in an equal volume of CFA containing 5 mg/ml of Mycobacterium tuberculosis H37RA (Difco, St. Louis, Mo.) were given on Day 0.2) Pertussis toxin (200 ng per mouse in 0.1 ml PBS) was given i.p. immediately and 48 h after first MOG injection. 3) a booster immunization with an identical emulsion, route of administration and location was given on Day 7.
# Following the encephalitogenic challenge, mice were monitored daily and neurological impairment was evaluated by clinical score (C.S.) as follows: 0, no clinical signs of EAE; 1, limp tail; 2, flaccid tail and abnormal gait (ataxia and/or paresis of hind limbs); 3, severe hind limb paresis; 4, complete paralysis with hind body; and 5, moribund or death.
# Mice were anesthetized, bled, and perfused with 25 ml PBS and 25 ml 4% paraformaldehyde in buffered PBS. Brains and spinal cords were dissected out from 3 mice with a clinical score of 0 and another 3 mice with a clinical score of 4 on day 30 post-immunization. Tissues were post-fixed in 4% paraformaldehyde for another 24 h and then stored in 1×PBS with 0.1% sodium azide. Fixed tissues were embedded in paraffin and 5 μm thick sections were cut from brain, the brain stem and three different levels of spinal cord (cervical, thoracic and lumbar). Sections were stained with hematoxylin/eosin for evidence of inflammation and Luxol fast blue (for demyelination). The severity of inflammation was evaluated using the following criteria: 0, no inflammation; 1, cellular infiltrates only in the perivascular areas and meninges; 2, mild cellular infiltrates only in parenchyma (1-10/section); 3, moderate cellular infiltrates in parenchyma (11-100/section); 4, marked cellular infiltrates in parenchyma (>100 section).
# In total, 10 doses of peptides were given.
# mice = test: Maximum tolerated dose, tail vein injection; settings: mouse, in vivo
# Protocol: Candidate compounds are then be screened in our closed head injury model of traumatic brain injury by intravenous dosing at 30 minutes post injury. Novel compounds are initially tested at one half their maximum tolerated dose (0.5×MTD). The maximum tolerated dose (MTD) is the dose of peptide given in a tail vein injection that results in no death of mice. Death is defined as a complete lack of breathing and complete unresponsiveness to external stimuli such as tail pinch and/or toe pinch for a period of 10 or more minutes. Animals are given an initial dose of 1 mg/kg of peptide analog or non-peptide mimetic and observed continuously for 15 minutes and then at 15 minute intervals for 2 hours and then at 1 hour intervals for 4 hours more. Animals are also observed at 24 hours post injection.
# The maximum tolerated dose is the maximum dose at which no animals die at any of these observation times. As an example of this procedure, the MTD is determined empirically by initially dosing groups of 3 mice at 1 mg/kg. If this dose is tolerated, then another group of 3 mice is dosed at 3 mg/kg. If this dose is tolerated, then another group of 3 mice is dosed at 9 mg/kg, etc. If, for example, 9 mg/kg is not tolerated because 1 or more animal died, then doses in-between 3 mg/kg and 9 mg/kg are investigated until the MTD is found. Once the MTD is empirically determined, it is confirmed in another group of 7 mice for a total of 10 mice being tested at the MTD and all of which must not die to confirm that this is the MTD.
# [7] = molecular target: cellular receptor bound by the apoE 133-149 peptide (on cells, 250,000 cells per well); test: competition with biotinylated apoE 133-149 for binding to whole cells (250,000 cells/well, 4 C), 125I-streptavidin detection
molecule,measurement,setting,value
Ac-RQIKIWFQNRRMKWKKLRVRLASHLRKLRKRLL-NH2 (N-terminus and C-terminus assumed) [COG4502],NO production (nitrite levels) in macrophage supernatants,"RAW 264.7 macrophages [1]; C. rodentium lysates, COG1410 2 μM, COG4502 0.1-5 μM",inhibition of NO production
same,iNOS mRNA expression,RAW 264.7 macrophages [1]; RT-PCR,"significant, concentration-dependent inhibition of iNOS mRNA expression"
same,IC50,[2],0.7 µM
same,Increase in potency relative to COG133,[2],40 fold
same,Suppression of LPS-stimulated nitrite secretion,[2],significantly more potent than COG133
same,Suppression of NO production at 25 μM,[2]; 25 μM,100%
same,Increase of efficacy of COG133 when conjugated to penetratin,[2]; FIG. 18 vs FIG. 16,about 100 fold
same,IC50,"[2]; read-out: Dose for fifty percent suppression of LPS-stimulated nitrite secretion, FIG. 18",~0.03 µM
same,IC50,"[2]; read-out: IC50 TNFα, in vitro",1.1 µM
same,Concentration at which cell toxicity was noted,RAW 264.7 macrophages [3],10 µM
same,Concentration range where toxicity did not occur,RAW 264.7 macrophages [3],0.1 to 5 µM
same,Inhibition of cytokine production induced by MOG or LPS/IFN-γ,peritoneal macrophages,significantly more powerful in inhibiting cytokine production
same,"Production of NO, TNFα and IL-6 at 5 μM","peritoneal macrophages; 5 μM, MOG or LPS/IFN-γ","inhibited the production of NO, TNFα and IL-6 completely"
same,TNFa and IL6 release from peritoneal macrophages,"peritoneal macrophages; gamma interferon and LPS, 24 hours",dose dependent inhibition of TNFa release and a dose dependent inhibition of IL6 release
same,Suppression of NO and/or TNFα release from LPS treated BV2 cells,BV2 microglial cells,much better than the COG133 parent
same,IC50,BV2 microglial cells; 40 h,~0.01 µM
same,"Rotorod performance, conjugates given at varying times following TBI",[4]; FIG. 20: 90 minutes following TBI,can increase the therapeutic window of COG133
same,In vivo Therapeutic window time expanded?,"[4]; mouse, in vivo",Yes; tested at 4 X
"NCCCNCCSP(=O)(O)O [amifostene, reference compound]",Dose reduction factor,"[5]; 30 days post-irradiation, given immediately before irradiation (Hall 2000)",2.7
CC(=O)N[C@@H](CC(C)C)C(=O)N[C@@H](CCCNC(=N)N)C(=O)N[C@H](C(=O)N[C@@H](CCCNC(=N)N)C(=O)N[C@@H](CC(C)C)C(=O)N[C@@H](C)C(=O)N[C@@H](CO)C(=O)N[C@@H](Cc1c[nH]cn1)C(=O)N[C@@H](CC(C)C)C(=O)N[C@@H](CCCNC(=N)N)C(=O)N[C@@H](CCCCN)C(=O)N[C@@H](CC(C)C)C(=O)N[C@@H](CCCNC(=N)N)C(=O)N[C@@H](CCCCN)C(=O)N[C@@H](CCCNC(=N)N)C(=O)N[C@@H](CC(C)C)C(=O)N[C@@H](CC(C)C)C(N)=O)C(C)C [COG133],half-life,in vivo,8 min
same,Tolerability in mice with EAE,[6],well tolerated
same,IC50,"[2]; read-out: IC50 NO, 50% suppression of NO production, normalized on cell viability",25 µM
same,Therapeutic Index (ratio of the MTD to the MED),mice,3.5
same,EC50,"BV2 microglial cells; read-out: EC50 (50% reduction of NO or TNFα release), LPS induced BV2 cells",3.5 µM
same,IC50,"BV2 microglial cells; read-out: IC50, inhibition of nitric oxide release, BV2 cells, LPS for 40 hours, approximate",~2 µM
B1,Survival rate at 30 days post-TBI,"[5]; 8 Gy, 2 hour delay, every day for 5 days (Van der Meeren et al. 2002)",74%
"LRVRLASHLRKLRKRLL (not fully specified) [apoE 133-149 peptide (COG133), unlabeled]",IC50,[7],4 µM
